In one data set the target is T1, Recombinant human intelectin-1 (Homo sapiens, UniProt Q8WWA0, V109D). In words: Inhibition of the binding of intelectin to a 3-amino-1-propanediol sensor chip by various compounds (Biacore, Example 3).
T1 sequence (Q8WWA0 19-298 V109D): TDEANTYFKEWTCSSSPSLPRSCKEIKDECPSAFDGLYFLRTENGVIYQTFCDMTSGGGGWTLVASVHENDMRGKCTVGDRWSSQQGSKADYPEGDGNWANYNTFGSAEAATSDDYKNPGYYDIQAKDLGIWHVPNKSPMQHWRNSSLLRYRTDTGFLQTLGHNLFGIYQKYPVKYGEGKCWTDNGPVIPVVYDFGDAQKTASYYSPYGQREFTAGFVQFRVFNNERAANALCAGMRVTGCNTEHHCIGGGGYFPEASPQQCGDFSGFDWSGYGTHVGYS
Conditions: not given
How it is done:
The binding of purified intelectin to a sensor chip to which 3-amino-1-propanediol is fixed via an amino group was measured using Biacore (GE Healthcare Biosciences) under the presence of various kinds of compounds that were serially diluted. Recombinant human intelectin-1 was used as intelectin. The above-mentioned compound was a compound containing or not containing a diol group. Specifically, the compound was glycerol, 1,2-propanediol, 1,3-propanediol, 1-propanol, ethylene glycol, ethanol, 2-methoxyethanol, galactose, 2-acetamido-2-deoxy-4-O-beta-D-galactopyranosyl-D-glucopyranose (Galp-GlcNAc), 2-acetamido-2-deoxy-4-O-beta-D-galactofuranosyl-D-glucopyranose (Galf-GlcNAc), D-ribose, or L-ribose.
Intelectin was used at the final concentration of 0.5 microgram/mL. 10 mM HEPES (pH 7.0) containing 1 mM CaCl2, 150 mM NaCl, and 0.03% Tween 20 was used as the measuring buffer. The binding of intelectin measured using the sample that was not added with an above-mentioned compound was considered 100%, and the binding of intelectin in each sample was measured.
(In general: Surface plasmon resonance follows binding to a sensor surface in real time, without labels.)
Sequence of IL-6 protein (P05231 30-212): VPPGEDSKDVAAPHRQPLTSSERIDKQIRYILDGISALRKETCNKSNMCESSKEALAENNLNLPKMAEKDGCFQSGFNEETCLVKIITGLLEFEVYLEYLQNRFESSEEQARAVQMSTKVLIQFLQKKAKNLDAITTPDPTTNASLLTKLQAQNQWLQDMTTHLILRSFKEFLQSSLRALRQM
By IC50 is commonly meant the concentration that gives 50% inhibition. With `OCCCCO` [1,4-butanediol], the IC50 was greater than 100 mM.
Regarding `O=C(CO)[C@@H](O)[C@H](O)[C@H](O)CO` [D-fructose], the IC50 came to 9 mM.
On the same count and under the same terms, the result for `O=C[C@H](O)[C@@H](O)[C@@H](O)[C@H](O)CO` [D-galactose] reads 11 mM; that for `O=C[C@H](O)[C@@H](O)[C@H](O)[C@H](O)CO` [D-glucose], 18 mM; that for `O=C[C@@H](O)[C@@H](O)[C@H](O)[C@H](O)CO` [D-mannose], 16 mM.
In the case of `O=C(CO)[C@@H](O)[C@H](O)[C@@H](O)CO` [L-sorbose], the IC50 came to 14 mM.
In the case of `OCCO` [ethylene glycol], the IC50 was 2.2 mM.

The same data set, now with this note: Biacore; intelectin 0.5 microgram/mL; sensor chip with 3-amino-1-propanediol fixed; 10 mM HEPES pH 7.0, 1 mM CaCl2; read-out: IC50 for inhibition of the binding of intelectin and the diol group.
`CCC(O)CO` (stereo not drawn) [1,2-butanediol]: the IC50 was found to be 0.8 mM.
Regarding `CC(O)CO` (stereo not drawn) [1,2-propanediol], the IC50 stood at 0.9 mM.
Regarding `CC(O)CCO` (stereo not drawn) [1,3-butanediol], the IC50 was 35 mM.
Same read-out and setting: the result for `OCCCO` [1,3-propanediol] reads 30 mM.
As to `CCCO` [1-propanol], the IC50 was greater than 100 mM.
As to `COC1(C(=O)O)C[C@H](O)[C@@H](NC(C)=O)[C@H]([C@H](O)[C@H](O)CO)O1` (stereo partly drawn) [2-O-methyl-D-N-acetylneuraminic acid], the IC50 is 6 mM.
Regarding `O=CC[C@@H](O)[C@@H](O)[C@H](O)CO` [2-deoxygalactose], the IC50 is 1.1 mM.
Still for that read-out and setting: as for `O=CC[C@H](O)[C@H](O)CO` [2-deoxyribose], the figure is 1.8 mM; as for `COCCO` [2-methoxyethanol], greater than 100 mM; as for `NCC(O)CO` (stereo not drawn) [3-amino-1,2-propanediol], 1.8 mM.
As to `NCCCO` [3-amino-1-propanol], the IC50 was greater than 100 mM.
On to `C[C@@H](O)CO` [(R)-1,2-propanediol], for which the 50% inhibitory concentration (IC50) stood at 1 mM.
With `C[C@@H](O)[C@@H](C)O` [(R,R)-2,3-butanediol], the IC50 was found to be 5 mM.
With `C[C@H](O)CO` [(S)-1,2-propanediol], the IC50 was determined as 1.2 mM.
The same measure, in the same setting: the result for `C[C@H](O)[C@H](C)O` [(S,S)-2,3-butanediol] reads 5 mM; that for `O=P(O)(O)OC(CO)CO` [Beta-glycerophosphate], greater than 100 mM; that for `O=C[C@@H](O)[C@H](O)[C@H](O)CO` [D-arabinose], 30 mM.
For the compound `C[C@@H](O)[C@H](O)[C@H](O)[C@@H](O)C=O` [D-fucose], the IC50 was 60 mM.
`O=C[C@@H](O)[C@@H](O)[C@H](O)CO` [D-lyxose]: the 50% inhibitory concentration (IC50) was found to be 22 mM.
Consider `O=C[C@H](O)[C@H](O)[C@H](O)CO` [D-ribose], for which the IC50 worked out at 0.5 mM.
As for `O=C[C@H](O)[C@@H](O)[C@H](O)CO` [D-xylose], the IC50 came out at 3.3 mM.
On to `NCCO` [Ethanolamine], for which the IC50 is greater than 100 mM.
Take `CC(=O)N[C@H]1C(O)O[C@H](CO)[C@@H](O[C@@H]2O[C@@H]([C@H](O)CO)[C@H](O)[C@H]2O)[C@@H]1O` (stereo partly drawn) [Galf-GlcNAc, 2-acetamido-2-deoxy-4-O-beta-D-galactofuranosyl-D-glucopyranose]: the IC50 was found to be 1.4 mM.
For the compound `CC(=O)N[C@H]1C(O)O[C@H](CO)[C@@H](O[C@@H]2O[C@H](CO)[C@H](O)[C@H](O)[C@H]2O)[C@@H]1O` (stereo partly drawn) [Galp-GlcNAc, 2-acetamido-2-deoxy-4-O-beta-D-galactopyranosyl-D-glucopyranose], the IC50 worked out at 13 mM.
In the case of `O=C[C@H](O)[C@@H](O)[C@@H](O)CO` [L-arabinose], the IC50 came out at 22 mM.
Turning to `O=C1O[C@H]([C@@H](O)CO)C(O)=C1O` [L-ascorbic acid], the 50% inhibitory concentration (IC50) was 0.8 mM.
With `C[C@H](O)[C@@H](O)[C@@H](O)[C@H](O)C=O` [L-fucose], the 50% inhibitory concentration (IC50) was greater than 100 mM.
On to `O=C[C@H](O)[C@H](O)[C@@H](O)CO` [L-lyxose], for which the IC50 was 13 mM.
`C[C@H](O)[C@H](O)[C@@H](O)[C@@H](O)C=O` [L-rhamnose]: the half-maximal inhibitory concentration (IC50) came out at 30 mM.
`O=C[C@@H](O)[C@@H](O)[C@@H](O)CO` [L-ribose]: the IC50 amounted to 0.3 mM.
For the compound `O=C[C@@H](O)[C@H](O)[C@@H](O)CO` [L-xyrose], the IC50 worked out at 9 mM.
Take `CC(=O)N[C@H]1C(O)O[C@H](CO)[C@@H](O)[C@@H]1O` (stereo partly drawn) [N-acetylglucosamine]: the IC50 worked out at 50 mM.
On to `NC(CO)(CO)CO` [Tris], for which the IC50 is 14 mM.
With `O=P(O)(O)OCC(O)CO` (stereo not drawn) [alpha-glycerophosphate], the IC50 stood at 1.2 mM.
Consider `CCO` [ethanol], for which the IC50 was greater than 100 mM.
With `OCC(O)CO` [glycerol], the 50% inhibitory concentration (IC50) amounted to 0.8 mM.
On to `C[C@H](O)[C@@H](C)O` [meso-2,3-butanediol], for which the IC50 came out at 1.8 mM.
As to `CCCC(=O)OCC(O)CO` (stereo not drawn) [monobutyrin], the IC50 was determined as 0.8 mM.
Take `OC[C@@H](O)[C@@H](O)[C@@H](O)CO` [ribitol]: the IC50 worked out at 1.2 mM.

The target of a further data set is T1, Recombinant human intelectin-1. In words: Binding of monoacylglycerol and intelectin (precipitation, SDS-PAGE, Example 5). The note with it: lipid 100 micro M in medium containing intelectin, 15 minutes at 37 deg C. The protocol: Monoacylgrycerols such as monopalmitin and monoolein are used as a component of micelles or liposomes. 1-monopalmitin, 2-monopalmitin, or 1-palmitoyl lysophosphatidic acid as a negative control at the final concentration of 100 micro M was added to 500 microliters of a medium containing intelectin, and the medium was stirred intensely and incubated for 15 minutes at 37 deg C. Recombinant human intelectin-1 was used as intelectin. By the above-mentioned procedures, it is expected that insoluble aggregates having a micelle-like structure with the diol group facing outwards and the acyl group facing inwards are formed and intelectin binds on the surface.
Subsequently, the samples were cooled for 15 minutes at 4 deg C. and centrifuged, and the precipitation was collected, washed once with buffer, and dissolved in sample buffer. Samples were then separated by SDS-PAGE and stained with Coomassie Brilliant Blue.
For `CCCCCCCCCCCCCCCC(=O)OCC(O)CO` (stereo not drawn) [1-monopalmitin], the “binding of intelectin to the lipid (SDS-PAGE)” value (“binding of intelectin” for short) is reported as “bound”.
As to `CCCCCCCCCCCCCCCC(=O)OCC(O)COP(=O)(O)O` (stereo not drawn) [1-palmitoyl lysophosphatidic acid], the “binding of intelectin” value is recorded as “only slightly”.
`CCCCCCCCCCCCCCCC(=O)OC(CO)CO` [2-monopalmitin]: the “binding of intelectin” value is on record as “bound”.

The target of another data set is IL-6 protein (Homo sapiens, UniProt P05231). In words: ELISA on IL-6 protein with the conjugate of antibody Fab fragment and intelectin (Example 8). The format is binding. The following applies: conjugate as primary antibody; HRP-labeled anti-intelectin-1 antibody 2D2. How it is done:
An ELISA analysis on IL-6 protein was performed using the conjugate generated in Example 6.
More specifically, IL-6 protein was adsorbed on an ELISA plate, and the conjugate generated in Example 6 was used for reaction as the primary antibody, and the horseradish peroxidase-labeled anti-intelectin-1 monoclonal antibody (2D2) was used for reaction as the secondary antibody. The detection was conducted using 3,3′,5,5′-tetramethylbenzidine.
A general note: ELISA stands for enzyme-linked immunosorbent assay.
For “conjugate generated in Example 6: H chain Fab region of anti-IL-6 monoclonal antibody MH166 joined via one glycine to human intelectin-1 (S165A), co-expressed with MH166 L chain”, the “binding to IL-6 protein (ELISA)” value is “bind to IL-6 protein”.

For another data set, the target named is T2, Recombinant human TNF-alpha (Homo sapiens, UniProt P01375).
T2 construct: purchased Life Technologies
T2 sequence (P01375 77-233 limits assumed): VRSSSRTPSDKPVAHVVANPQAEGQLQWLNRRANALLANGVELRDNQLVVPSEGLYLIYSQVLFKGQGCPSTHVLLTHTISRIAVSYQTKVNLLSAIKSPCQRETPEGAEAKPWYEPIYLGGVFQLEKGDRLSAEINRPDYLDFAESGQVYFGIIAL
In words: Affinity between the conjugate of TNFR2 and intelectin and TNF-alpha (Biacore, Example 11). Format: binding. The note with it: TNF-alpha as analyte, ligand fixed to sensor chip. How it is done: The binding affinity between the conjugate generated in Example 7 and TNF-alpha was measured using Biacore (GE Healthcare Biosciences). The binding affinity between a commercially available anti-TNF formulation (Etanercept, soluble TNF receptor, product name “ Enbrel (registered trademark),” Takeda Pharmaceutical Company) and TNF-alpha was also measured as a control.
Recombinant human TNF-alpha (Life Technologies) was used as TNF-alpha.
With Etanercept, the “association rate constant Ka” value was found to be 1.09e+06 M⁻¹ s⁻¹ and the “dissociation rate constant Kd” value was found to be 0.000342 s⁻¹.

Still in this data set, the particulars now being: TNF-alpha as analyte, ligand fixed to sensor chip; read-out: dissociation constant KD.
The Kd is the equilibrium constant for the complex coming apart. On to Etanercept, for which the Kd was determined as 0.313 nM.

Another data set deals with T2, Recombinant human TNF-alpha. In words: Inhibitory effect on cytotoxicity by TNF-alpha in L929 cells (Example 12). Format: cell-based, mouse. The following applies: actinomycin D 2.12 micro M, TNF-alpha 1 ng/mL, 24 hours. The protocol: Actinomycin D at the final concentration of 2.12 micro M, recombinant human TNF-alpha (Life Technologies) at the final concentration of 1 ng/mL, and serially diluted conjugates generated in Example 7 were added to the medium of L929, a mouse-derived cell line, and the cells were cultured for 24 hours at 37 deg C. Subsequently, the number of live cells were measured using a commercially available kit (model “CellTiter96 (Trademark),” Promega), and the cell survival rate was determined. Another experiment, where a commercially available anti-TNF formulation (Etanercept, soluble TNF receptor, product name “ Enbrel (registered trademark),” Takeda Pharmaceutical Company) was used instead of the conjugate generated in Example 7, was also performed as a control.
For Etanercept, the “cytotoxicity inhibitory activity (cell survival rate)” value is listed as “approximately equivalent cytotoxicity inhibitory activities”.

The values above are taken from patent publication US20180057553A1, “CONJUGATE AND USE THEREOF” (The University of Tokyo, priority 2015, published 2018).
